# Literature values in patent publication US7816357B2, “Azabicyclic heterocycles as cannabinoid receptor modulators” (Bristol-Myers Squibb Company, priority 2003, dated 2010).
# Tested on: human subjects
# Conditions: 16 week trial period, published Phase IIb data
compound,measurement,value
Cc1c(C(=O)NN2CCCCC2)nn(-c2ccc(Cl)cc2Cl)c1-c1ccc(Cl)cc1 [SR-141716],body weight in human subjects,dose-dependently reduced body weight
